Values of other authors in US6415234B1, “Designing inhibitors for glycosyltransferases” (Glyco Design Inc., priority 1998, dated 2002).

Conditions: polarised continuum model

solvation free energy in water: -195.8 kcal/mol
SMILES: O=P(O)(O)OP(=O)(O)O [pyrophosphate dianion]
